Laboratory results as given in patent US10308689B2, “Dengue virus (DV) polypeptide sequences, T cell epitopes and methods and uses thereof” (LA JOLLA INSTITUTE FOR ALLERGY AND IMMUNOLOGY, priority 2010, dated 2019).
Ends that are not written are not given here.

System: PBMC of healthy adult blood donors from Colombo, Sri Lanka
Assay: Ex vivo IFNγ ELISPOT, HLA-matched PBMC of Sri Lankan blood donors
Format: cell-based, human
Parameters: Total Response per epitope: unit not given here
Conditions: for # donors responded: number of donors responding to the epitope; for T cell response [SFC]: ex vivo IFNγ SFC/10^6 PBMC; for # of responders: responding donors, HLA allele(s)
[1] = restricting HLA allele and serotype as given
[2] = total over responding donors, restricting HLA allele and serotype as given
[3] = IFNγ ELISPOT response summed over responding donors, per epitope
[4] = HLA-matched PBMC, proteome-wide screen

CC(C)C[C@H](NC(=O)[C@H](CC(C)C)NC(=O)[C@@H](NC(=O)[C@H](C)NC(=O)[C@H](C)N)C(C)C)C(=O)N[C@@H](CC(C)C)C(=O)N[C@H](C(=O)N[C@H](C(=O)N[C@@H](Cc1c[nH]cn1)C(=O)N[C@@H](Cc1ccc(O)cc1)C(=O)O)[C@@H](C)O)C(C)C
# donors responded [1]: 2 | Total Response per epitope [2]: 393.3

CC(C)C[C@H](NC(=O)[C@@H](NC(=O)[C@@H](NC(=O)[C@H](CC(C)C)NC(=O)[C@@H]1CCCN1C(=O)CNC(=O)[C@@H](NC(=O)[C@H](C)N)[C@@H](C)O)[C@@H](C)O)[C@@H](C)O)C(=O)N[C@@H](Cc1c[nH]c2ccccc12)C(=O)O
# donors responded [1]: 1 | T cell response [SFC] (per epitope): 275 SFC | # of responders: 1 | Total Response per epitope [2]: 275.0

CSCC[C@H](NC(=O)[C@H](CCSC)NC(=O)[C@H](CC(C)C)NC(=O)[C@@H](N)CS)C(=O)N[C@@H](CCSC)C(=O)N[C@@H](CC(C)C)C(=O)N1CCC[C@H]1C(=O)N[C@@H](C)C(=O)N[C@H](C(=O)N[C@@H](CC(C)C)C(=O)O)[C@@H](C)O
# donors responded [1]: 1 | Total Response per epitope [2]: 78.3

CC(C)C[C@H](NC(=O)[C@@H](NC(=O)[C@H](C)NC(=O)[C@H](CCC(=O)O)NC(=O)CNC(=O)[C@H](CCC(N)=O)NC(=O)[C@@H](NC(=O)[C@@H]1CCCN1C(=O)[C@@H](N)CS)[C@@H](C)O)[C@@H](C)O)C(=O)O
# donors responded [1]: 1 | Total Response per epitope [2]: 295.0

CC(C)C[C@H](NC(=O)[C@@H](NC(=O)[C@H](C)NC(=O)[C@H](CCC(=O)O)NC(=O)CNC(=O)[C@H](CCC(N)=O)NC(=O)[C@@H](NC(=O)[C@@H]1CCCN1C(=O)[C@@H](N)CS)[C@@H](C)O)C(C)C)C(=O)O
# donors responded [1]: 2 | Total Response per epitope [2]: 385.0

CC[C@H](C)[C@H](NC(=O)[C@@H]1CCCN1C(=O)[C@@H](N)CC(=O)O)C(=O)N1CCC[C@H]1C(=O)N[C@@H](Cc1ccc(O)cc1)C(=O)N[C@@H](CC(=O)O)C(=O)N1CCC[C@H]1C(=O)N[C@@H](CCCCN)C(=O)N[C@@H](Cc1ccccc1)C(=O)O
# donors responded [1]: 1 | Total Response per epitope [2]: 38.3

CC(C)[C@H](NC(=O)[C@H](C)NC(=O)[C@@H](N)CCC(=O)O)C(=O)N[C@@H](CCC(=O)O)C(=O)N[C@@H](CC(=O)O)C(=O)N[C@@H](CO)C(=O)N[C@@H](CCCNC(=N)N)C(=O)N[C@@H](Cc1ccccc1)C(=O)N[C@@H](Cc1c[nH]c2ccccc12)C(=O)N[C@@H](CCC(=O)O)C(=O)O
# donors responded [1]: 1 | Total Response per epitope [2]: 248.3

CC(C)C[C@H](NC(=O)[C@H](CCC(N)=O)NC(=O)CNC(=O)[C@@H]1CCCN1C(=O)[C@@H](N)CCC(=O)O)C(=O)N[C@@H](CCCCN)C(=O)N[C@@H](CC(C)C)C(=O)N[C@@H](CC(N)=O)C(=O)N[C@@H](Cc1c[nH]c2ccccc12)C(=O)N[C@@H](Cc1ccccc1)C(=O)O
# donors responded [1]: 5 | Total Response per epitope [2]: 581.7

CSCC[C@H](NC(=O)[C@H](CC(C)C)NC(=O)[C@H](CCCCN)NC(=O)[C@H](CCCCN)NC(=O)[C@@H](NC(=O)CNC(=O)[C@H](CCC(=O)O)NC(=O)[C@H](CCCCN)NC(=O)[C@@H]1CCCN1C(=O)[C@@H](N)CCC(=O)O)[C@@H](C)O)C(=O)O
# donors responded [1]: 3 | Total Response per epitope [2]: 928.3

CC[C@H](C)[C@H](N)C(=O)N[C@@H](C)C(=O)N[C@H](C(=O)N[C@@H](CO)C(=O)N[C@@H](CCSC)C(=O)N[C@@H](C)C(=O)N[C@@H](CC(N)=O)C(=O)N[C@H](C(=O)N[C@@H](Cc1ccccc1)C(=O)O)[C@@H](C)CC)C(C)C
# donors responded [1]: 6 | Total Response per epitope [2]: 1966.7

CC[C@H](C)[C@H](N)C(=O)N[C@@H](C)C(=O)N[C@H](C(=O)N[C@@H](CO)C(=O)N[C@H](C(=O)N[C@@H](C)C(=O)N[C@@H](CC(N)=O)C(=O)N[C@H](C(=O)N[C@@H](Cc1ccccc1)C(=O)O)[C@@H](C)CC)[C@@H](C)O)C(C)C
# donors responded [1]: 2 | Total Response per epitope [2]: 415.0

CC[C@H](C)[C@H](N)C(=O)NCC(=O)N[C@H](C(=O)NCC(=O)N[C@H](C(=O)N[C@@H](CC(C)C)C(=O)N[C@@H](CC(C)C)C(=O)N[C@H](C(=O)N[C@@H](Cc1c[nH]c2ccccc12)C(=O)O)[C@@H](C)O)[C@@H](C)CC)[C@@H](C)CC
# donors responded [1]: 1 | Total Response per epitope [2]: 525.0

CC[C@H](C)[C@H](N)C(=O)N[C@H](C(=O)N[C@@H](CC(C)C)C(=O)N[C@@H](CCC(=O)O)C(=O)N[C@@H](Cc1ccccc1)C(=O)N[C@@H](Cc1ccccc1)C(=O)N[C@@H](CC(C)C)C(=O)N[C@@H](CCSC)C(=O)N[C@H](C(=O)O)C(C)C)[C@@H](C)CC
# donors responded [1]: 1 | Total Response per epitope [2]: 143.3

CC[C@H](C)[C@H](N)C(=O)N1CCC[C@H]1C(=O)N[C@@H](Cc1ccccc1)C(=O)N[C@@H](CCC(=O)O)C(=O)N[C@H](C(=O)N[C@@H](CCSC)C(=O)N[C@@H](CC(=O)O)C(=O)N[C@@H](CC(C)C)C(=O)N[C@@H](CCC(=O)O)C(=O)N[C@@H](CCCCN)C(=O)O)[C@@H](C)CC
# donors responded [1]: 5 | Total Response per epitope [2]: 1500.0

CC[C@H](C)[C@H](N)C(=O)N1CCC[C@H]1C(=O)N[C@@H](CCSC)C(=O)N[C@@H](C)C(=O)N[C@H](C(=O)N[C@@H](Cc1ccc(O)cc1)C(=O)NCC(=O)N[C@@H](Cc1c[nH]c2ccccc12)C(=O)N[C@@H](CC(N)=O)C(=O)N[C@@H](CC(C)C)C(=O)O)[C@@H](C)O
# donors responded [1]: 2 | Total Response per epitope [2]: 456.7

CC[C@H](C)[C@H](N)C(=O)N1CCC[C@H]1C(=O)N[C@@H](CCSC)C(=O)N[C@@H](CO)C(=O)N[C@H](C(=O)N[C@@H](Cc1ccc(O)cc1)C(=O)NCC(=O)N[C@@H](Cc1c[nH]c2ccccc12)C(=O)N[C@@H](CC(N)=O)C(=O)N[C@@H](CC(C)C)C(=O)O)[C@@H](C)O
# donors responded [1]: 3 | Total Response per epitope [2]: 320.0

CC[C@H](C)[C@H](N)C(=O)N1CCC[C@H]1C(=O)N[C@@H](CCSC)C(=O)N[C@H](C(=O)NCC(=O)N1CCC[C@H]1C(=O)N[C@@H](CC(C)C)C(=O)N[C@H](C(=O)N[C@@H](C)C(=O)NCC(=O)O)C(C)C)[C@@H](C)O
# donors responded [1]: 5 | Total Response per epitope [2]: 1160.0

CC[C@H](C)[C@H](N)C(=O)N[C@@H](CCC(N)=O)C(=O)N1CCC[C@H]1C(=O)N[C@@H](Cc1ccccc1)C(=O)N[C@@H](CC(C)C)C(=O)N[C@@H](C)C(=O)N[C@@H](CC(C)C)C(=O)NCC(=O)N[C@@H](Cc1ccccc1)C(=O)O
# donors responded [1]: 1 | Total Response per epitope [2]: 85.0

CC[C@H](C)[C@H](N)C(=O)N[C@H](C(=O)N[C@@H](CC(C)C)C(=O)N[C@@H](CC(C)C)C(=O)N[C@@H](CS)C(=O)N[C@@H](CC(C)C)C(=O)N[C@H](C(=O)N1CCC[C@H]1C(=O)N[C@H](C(=O)N[C@H](C(=O)O)C(C)C)[C@@H](C)O)[C@@H](C)CC)[C@@H](C)O
# donors responded [1]: 1 | Total Response per epitope [2]: 63.3

CC(C)C[C@H](NC(=O)[C@H](CCCNC(=N)N)NC(=O)[C@@H]1CCCN1C(=O)[C@@H](N)CCCCN)C(=O)N[C@@H](CS)C(=O)N[C@H](C(=O)N[C@@H](CCCNC(=N)N)C(=O)N[C@@H](CCC(=O)O)C(=O)N[C@@H](CCC(=O)O)C(=O)N[C@@H](Cc1ccccc1)C(=O)O)[C@@H](C)O
# donors responded [1]: 1 | T cell response [SFC] (per epitope): 350 SFC | # of responders: 1 | Total Response per epitope [2]: 350.0

CC(C)C[C@H](NC(=O)[C@H](CCCNC(=N)N)NC(=O)[C@@H]1CCCN1C(=O)[C@@H](N)CC(N)=O)C(=O)N[C@@H](CS)C(=O)N[C@H](C(=O)N[C@@H](CCCNC(=N)N)C(=O)N[C@@H](CCC(=O)O)C(=O)N[C@@H](CCC(=O)O)C(=O)N[C@@H](Cc1ccccc1)C(=O)O)[C@@H](C)O
# donors responded [1]: 1 | T cell response [SFC] (per epitope): 365 SFC | # of responders: 1 | Total Response per epitope [2]: 365.0

CC[C@H](C)[C@H](NC(=O)[C@H](CC(C)C)NC(=O)[C@H](CS)NC(=O)[C@H](CC(C)C)NC(=O)[C@H](CC(C)C)NC(=O)[C@@H](N)[C@@H](C)O)C(=O)N1CCC[C@H]1C(=O)N[C@H](C(=O)N[C@H](C(=O)O)C(C)C)[C@@H](C)O
Total Response per epitope [2]: 53.3

CC[C@H](C)[C@H](NC(=O)[C@H](CCCCN)NC(=O)[C@H](CO)NC(=O)[C@H](CO)NC(=O)CN)C(=O)N[C@@H](CCCNC(=N)N)C(=O)N[C@@H](Cc1c[nH]c2ccccc12)C(=O)N[C@H](C(=O)N[C@H](C(=O)N[C@@H](CCC(=O)O)C(=O)O)C(C)C)[C@@H](C)CC [GSSKIRWIVE]
# donors responded [1]: 2 | Total Response per epitope [2]: 111.7

CSCC[C@H](NC(=O)[C@H](CC(C)C)NC(=O)[C@@H](NC(=O)[C@H](CCC(=O)O)NC(=O)[C@@H](N)CC(C)C)[C@@H](C)O)C(=O)N[C@@H](CC(C)C)C(=O)N[C@H](C(=O)N[C@@H](C)C(=O)N[C@@H](CC(C)C)C(=O)O)C(C)C [LETLMLVAL]
Total Response per epitope [3]: 103.3 | # donors responded [4]: 1

CSCC[C@H](N)C(=O)N[C@H](C(=O)N[C@@H](CCC(N)=O)C(=O)N[C@@H](CCCCN)C(=O)N[C@@H](C)C(=O)N[C@@H](CCCNC(=N)N)C(=O)N[C@@H](CC(N)=O)C(=O)N[C@@H](C)C(=O)N[C@@H](CC(C)C)C(=O)O)[C@@H](C)O [MTQKARNAL]
Total Response per epitope [3]: 268.3 | # donors responded [4]: 2

CSCC[C@H](NC(=O)[C@H](C)NC(=O)CNC(=O)[C@H](CCC(=O)O)NC(=O)[C@@H](N)CCC(N)=O)C(=O)N[C@@H](Cc1c[nH]cn1)C(=O)N[C@@H](CO)C(=O)N[C@@H](C)C(=O)N[C@@H](CC(C)C)C(=O)O [QEGAMHSAL]
Total Response per epitope [3]: 48.3 | # donors responded [4]: 1

CSCC[C@H](NC(=O)[C@H](C)NC(=O)CNC(=O)[C@H](CCC(=O)O)NC(=O)[C@@H](N)CCC(N)=O)C(=O)N[C@@H](Cc1c[nH]cn1)C(=O)N[C@H](C(=O)N[C@@H](C)C(=O)N[C@@H](CC(C)C)C(=O)O)[C@@H](C)O [QEGAMHTAL]
Total Response per epitope [3]: 40.0 | # donors responded [4]: 1

ATGPVLTLW
# donors responded [1]: 2 | T cell response [SFC] (per epitope): 390 SFC | # of responders: 2 | Total Response per epitope [2]: 390.0

CLIPTAMAF
# donors responded [1]: 1 | T cell response [SFC] (per epitope): 67 SFC | # of responders: 1 | Total Response per epitope [2]: 66.7

DPRRCLKPV
# donors responded [1]: 2 | Total Response per epitope [2]: 556.7
